Assay results published in ChEMBL document CHEMBL5653635, “Induction of apoptosis and cell cycle arrest by CP-358,774, an inhibitor of epidermal growth factor receptor tyrosine kinase” (Cancer Res, 1997).
Active and inactive are the calls of the source. No cut-off for these calls is given here.

Assays:
[1] = molecular target: Insulin receptor (Homo sapiens) (UniProt P06213); test: Inhibition of human recombinant insulin receptor expressed in baculovirus at 10 uM incubated for 8 mins by colorimetry based assay
[2] = molecular target: Insulin-like growth factor 1 receptor (Homo sapiens) (UniProt P08069); test: Inhibition of IGF-IR (711 to 1377 residues) (unknown origin) expressed in baculovirus-infected Sf9 cells at 10 uM incubated for 8 mins by colorimetry based assay
[3] = molecular target: Insulin-like growth factor 1 receptor (Homo sapiens) (UniProt P08069); test: Inhibition of insulin induced phosphorylation of IRS-1 in serum starved human HN5 cells at 1 uM preincubated for 1 hr followed by insulin stimulation and measured after 5 mins by immunoblot analysis; type: cell-based; settings: time 65.0 min
[4] = molecular target: Insulin receptor (Homo sapiens) (UniProt P06213); test: Inhibition of insulin induced phosphorylation of insulin receptor in serum starved human HN5 cells at 1 uM preincubated for 1 hr followed by insulin stimulation and measured after 5 mins by immunoblot analysis; type: cell-based; settings: time 65.0 min
[5] = test system: DiFi; test: Antiproliferative activity against human DiFi cells assessed as percentage of viable cells at 1 uM measured after 24 hrs by coulter counter method (reference value: 98+/-0.8%); type: functional
[6] = Antiproliferative activity against raf-transformed mouse NIH3T3 cells assessed as inhibition of cell viability; type: toxicity, cell-based
[7] = test system: HN5; test: Antiproliferative activity against human HN5 cells assessed as inhibition of cell viability at 50 nM; type: functional, cell-based
[8] = test system: HN5; test: Antiproliferative activity against human HN5 cells assessed as inhibition of cell viability at 250 nM relative to control; type: functional
[9] = test system: HN5; test: Induction of cell cycle arrest in human HN5 cells assessed as reduction in accumulation of cells in S phase at 1 uM measured after 48 hrs by PI staining based flow cytometry analysis (reference value: 55%); type: functional; parameters: scale not given: the % may be the effect or the level left
[10] = test system: HN5; test: Induction of cell cycle arrest in human HN5 cells assessed as increase in accumulation of cells in G1 phase at 1 uM measured after 48 hrs by PI staining based flow cytometry analysis (reference value: 24%); type: functional
[11] = test system: DiFi; test: Induction of cell cycle arrest in human DiFi cells assessed as decrease in cell percentage in S phase at 0.1 uM measured after 24 hrs by BrdUrd incorporation based flow cytometry analysis (reference value: 14 +- 0.5%); type: functional; parameters: scale not given: the % may be the effect or the level left
[12] = test system: DiFi; test: Induction of cell cycle arrest in human DiFi cells assessed as decrease in cell percentage in S phase at 1 uM measured after 24 hrs by BrdUrd incorporation based flow cytometry analysis (reference value: 14 +- 0.5%); type: functional; parameters: scale not given: the % may be the effect or the level left
[13] = test system: DiFi; test: Induction of cell cycle arrest in human DiFi cells assessed as increase in cell percentage in G1 phase at 0.1 uM measured after 24 hrs by BrdUrd incorporation based flow cytometry analysis (reference value: 82 +- 0.9%); type: functional
[14] = test system: DiFi; test: Induction of cell cycle arrest in human DiFi cells assessed as increase in cell percentage in G1 phase at 1 uM measured after 24 hrs by BrdUrd incorporation based flow cytometry analysis (reference value: 82 +- 0.9%); type: functional
[15] = test system: DiFi; test: Induction of apoptosis in human DiFi cells assessed as accumulation of cells at sub-G1 phase at 1 uM measured after 24 hrs by PI staining based flow cytometry analysis; type: functional, cell-based
[16] = test system: HN5; test: Induction of apoptosis in human HN5 cells assessed as decrease in cell population at 1 uM measured after 24 hrs by PI staining based flow cytometry analysis; type: functional
[17] = test system: DiFi; test: Induction of apoptosis in human DiFi cells assessed as accumulation of cells at sub-G1 phase at 1 uM measured after 24 hrs in presence of IGF-1 by PI staining based flow cytometry analysis; type: functional, cell-based
[18] = test system: DiFi; test: Induction of apoptosis in human DiFi cells assessed as DNA fragmentation by measuring DNA ladders at 1 uM measured after 24 hrs by agarose gel electrophoresis analysis; type: functional, cell-based
[19] = test system: DiFi; test: Induction of apoptosis in human DiFi cells assessed as DNA fragmentation at 1 uM measured after 24 hrs in presence of IGF-1 by agarose gel electrophoresis analysis; type: functional, cell-based
[20] = test system: DiFi; test: Induction of apoptosis in human DiFi cells assessed as decrease in number of normal cells at 1 uM incubated for 24 hrs by annexin V-FITC and PI staining based flow cytometry analysis; type: functional, cell-based
[21] = test system: DiFi; test: Induction of apoptosis in human DiFi cells assessed as increase in number of necrotic cells at 1 uM incubated for 24 hrs by annexin V-FITC and PI staining based flow cytometry analysis; type: functional, cell-based
[22] = test system: DiFi; test: Induction of apoptosis in human DiFi cells assessed as protection of annexin V-FITC binding at 1 uM incubated for 24 hrs in presence of IGF-1 by annexin V-FITC and PI staining based flow cytometry analysis relative to control; type: functional
[23] = test system: DiFi; test: Induction of PARP cleavage in human DiFi cells assessed as decrease in Mr 116000 fragments at 1 uM incubated for 24 hrs by Western blotting analysis; type: functional, cell-based
[24] = test system: DiFi; test: Induction of PARP cleavage in human DiFi cells assessed as increase in Mr 85000 fragments at 1 uM incubated for 24 hrs by Western blotting analysis; type: functional, cell-based
[25] = test system: DiFi; test: Induction of PARP cleavage in human DiFi cells assessed as increase in Mr 85000 fragments at 8 ug/ml […] incubated for 24 hrs by Western blotting analysis; type: functional, cell-based; settings: dose 8.0 µg/ml
[26] = test system: DiFi; test: Induction of PARP cleavage in human DiFi cells assessed as decrease in Mr 116000 fragments at 1 uM incubated for 24 hrs in presence of IGF-1 by Western blotting analysis; type: functional, cell-based
[27] = test system: DiFi; test: Induction of PARP cleavage in human DiFi cells assessed as increase in Mr 85000 fragments at 1 uM incubated for 24 hrs in presence of IGF-1 by Western blotting analysis; type: functional, cell-based
[28] = test system: DiFi; test: Induction of cell cycle arrest in human DiFi cells assessed as accumulation of cells at G1 phase at 1 uM incubated for 24 hrs by PI staining based flow cytometry analysis (reference value: 64%); type: functional
[29] = test system: DiFi; test: Induction of cell cycle arrest in human DiFi cells assessed as accumulation of cells at S phase at 1 uM incubated for 24 hrs by PI staining based flow cytometry analysis (reference value: 8 %); type: functional
[30] = test system: DiFi; test: Induction of cell cycle arrest in human DiFi cells assessed as accumulation of cells at G2 phase at 1 uM incubated for 24 hrs by PI staining based flow cytometry analysis (reference value: 28%); type: functional
[31] = test system: DiFi; test: Induction of apoptosis in human DiFi cells at 1 uM incubated for 24 hrs by PI staining based flow cytometry analysis (reference value: 2.3%); type: functional
[32] = test system: DiFi; test: Induction of apoptosis in human DiFi cells at 1 uM measured after 24 hrs by annexin V-FITC and PI staining based flow cytometry analysis (reference value: 6%); type: functional
[33] = test system: DiFi; test: Induction of cell cycle arrest in human DiFi cells assessed as accumulation of cells at G1 phase at 1 uM incubated for 24 hrs in presence of IGF-1 by PI staining based flow cytometry analysis (reference value: 64%); type: functional
[34] = test system: DiFi; test: Induction of cell cycle arrest in human DiFi cells assessed as accumulation of cells at S phase at 1 uM incubated for 24 hrs in presence of IGF-1 by PI staining based flow cytometry analysis (reference value: 8 %); type: functional
[35] = test system: DiFi; test: Induction of cell cycle arrest in human DiFi cells assessed as accumulation of cells at G2 phase at 1 uM incubated for 24 hrs in presence of IGF-1 by PI staining based flow cytometry analysis (reference value: 28%); type: functional
[36] = test system: DiFi; test: Induction of apoptosis in human DiFi cells at 1 uM incubated for 24 hrs in presence of IGF-1 by PI staining based flow cytometry analysis (reference value: 2.3%); type: functional
[37] = test system: DiFi; test: Induction of apoptosis in human DiFi cells at 1 uM measured after 24 hrs in presence of IGF-1 by annexin V-FITC and PI staining based flow cytometry analysis (reference value: 6%); type: functional
[38] = molecular target: Insulin-like growth factor 1 receptor (Homo sapiens) (UniProt P08069); test: Inhibition of IGF-IR (711 to 1377 residues) (unknown origin) expressed in baculovirus-infected Sf9 cells at 20 uM incubated for 8 mins by colorimetry based assay relative to control

Sequence of Insulin-like growth factor 1 receptor (Homo sapiens) (P08069 31-736 limits assumed): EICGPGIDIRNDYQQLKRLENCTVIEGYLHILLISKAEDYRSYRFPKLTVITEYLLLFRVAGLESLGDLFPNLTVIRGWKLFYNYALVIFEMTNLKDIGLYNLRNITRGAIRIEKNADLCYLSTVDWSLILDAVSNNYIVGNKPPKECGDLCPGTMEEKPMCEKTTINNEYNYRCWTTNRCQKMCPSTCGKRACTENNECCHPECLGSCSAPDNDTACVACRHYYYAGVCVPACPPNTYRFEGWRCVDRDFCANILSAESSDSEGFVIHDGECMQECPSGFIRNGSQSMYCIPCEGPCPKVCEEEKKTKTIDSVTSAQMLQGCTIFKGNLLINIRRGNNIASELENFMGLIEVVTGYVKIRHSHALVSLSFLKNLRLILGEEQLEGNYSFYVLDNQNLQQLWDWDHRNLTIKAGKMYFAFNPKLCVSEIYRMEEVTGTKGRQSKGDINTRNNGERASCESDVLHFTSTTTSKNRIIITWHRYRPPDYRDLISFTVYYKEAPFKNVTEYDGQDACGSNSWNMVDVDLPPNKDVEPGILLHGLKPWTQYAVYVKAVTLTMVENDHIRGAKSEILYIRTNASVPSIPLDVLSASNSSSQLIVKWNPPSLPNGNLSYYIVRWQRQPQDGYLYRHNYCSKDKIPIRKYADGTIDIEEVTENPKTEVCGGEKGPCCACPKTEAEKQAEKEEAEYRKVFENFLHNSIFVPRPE
Sequence of Insulin-like growth factor 1 receptor (Homo sapiens) (P08069 741-1367 limits assumed): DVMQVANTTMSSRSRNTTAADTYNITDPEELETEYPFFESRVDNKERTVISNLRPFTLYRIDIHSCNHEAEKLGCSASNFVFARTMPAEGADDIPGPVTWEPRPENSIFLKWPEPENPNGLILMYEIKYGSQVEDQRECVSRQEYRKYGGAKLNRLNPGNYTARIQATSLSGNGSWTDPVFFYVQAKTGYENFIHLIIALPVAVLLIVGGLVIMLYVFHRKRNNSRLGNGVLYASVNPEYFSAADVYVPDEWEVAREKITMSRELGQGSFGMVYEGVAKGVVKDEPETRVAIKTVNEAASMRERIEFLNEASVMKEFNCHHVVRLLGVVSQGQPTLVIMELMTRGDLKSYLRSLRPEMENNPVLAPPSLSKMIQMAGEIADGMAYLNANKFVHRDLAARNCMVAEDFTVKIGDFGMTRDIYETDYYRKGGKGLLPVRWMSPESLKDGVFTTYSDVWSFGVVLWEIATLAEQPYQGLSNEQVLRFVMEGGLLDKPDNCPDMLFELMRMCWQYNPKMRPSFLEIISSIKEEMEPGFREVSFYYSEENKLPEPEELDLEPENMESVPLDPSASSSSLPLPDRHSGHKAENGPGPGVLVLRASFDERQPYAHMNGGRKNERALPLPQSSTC
Sequence of Insulin receptor (Homo sapiens) (P06213 28-758 limits assumed): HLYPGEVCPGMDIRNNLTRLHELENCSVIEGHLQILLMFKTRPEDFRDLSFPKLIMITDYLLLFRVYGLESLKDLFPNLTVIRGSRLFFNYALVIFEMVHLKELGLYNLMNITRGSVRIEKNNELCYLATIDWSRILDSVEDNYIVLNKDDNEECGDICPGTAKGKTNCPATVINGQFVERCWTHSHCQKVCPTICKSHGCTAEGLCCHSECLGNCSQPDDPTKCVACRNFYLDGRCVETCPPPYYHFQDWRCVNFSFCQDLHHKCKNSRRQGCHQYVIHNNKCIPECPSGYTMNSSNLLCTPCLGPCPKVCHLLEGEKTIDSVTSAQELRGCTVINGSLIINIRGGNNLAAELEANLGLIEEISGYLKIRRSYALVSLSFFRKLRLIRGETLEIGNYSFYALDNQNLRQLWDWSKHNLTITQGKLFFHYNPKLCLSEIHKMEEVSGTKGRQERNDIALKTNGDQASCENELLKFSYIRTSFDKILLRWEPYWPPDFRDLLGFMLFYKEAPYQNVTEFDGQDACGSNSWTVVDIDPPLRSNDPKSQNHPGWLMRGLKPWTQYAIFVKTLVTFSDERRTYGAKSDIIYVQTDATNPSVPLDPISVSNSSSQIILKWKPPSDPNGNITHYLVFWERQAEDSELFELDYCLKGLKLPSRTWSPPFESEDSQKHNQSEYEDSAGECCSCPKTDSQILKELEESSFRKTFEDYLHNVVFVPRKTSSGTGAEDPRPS
Sequence of Insulin receptor (Homo sapiens) (P06213 763-1382 limits assumed): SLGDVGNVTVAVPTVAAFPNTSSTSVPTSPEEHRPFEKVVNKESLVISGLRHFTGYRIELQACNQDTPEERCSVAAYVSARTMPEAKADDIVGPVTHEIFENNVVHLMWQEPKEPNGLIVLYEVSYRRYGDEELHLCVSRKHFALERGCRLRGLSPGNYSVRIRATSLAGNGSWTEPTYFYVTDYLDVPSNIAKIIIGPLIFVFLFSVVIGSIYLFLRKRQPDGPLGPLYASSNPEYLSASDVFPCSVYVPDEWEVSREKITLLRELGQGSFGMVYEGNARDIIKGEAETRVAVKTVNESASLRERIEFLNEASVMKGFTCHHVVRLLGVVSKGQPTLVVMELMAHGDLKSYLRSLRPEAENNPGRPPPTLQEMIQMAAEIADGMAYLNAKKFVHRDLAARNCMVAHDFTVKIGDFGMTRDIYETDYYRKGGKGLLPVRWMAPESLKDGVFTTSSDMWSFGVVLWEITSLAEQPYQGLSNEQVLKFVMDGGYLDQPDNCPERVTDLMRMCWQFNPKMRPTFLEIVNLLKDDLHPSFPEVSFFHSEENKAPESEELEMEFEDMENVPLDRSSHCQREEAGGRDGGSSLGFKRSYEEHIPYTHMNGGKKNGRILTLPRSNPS

C#Cc1cccc(Nc2ncnc3cc(OCCOC)c(OCCOC)cc23)c1 [ERLOTINIB]
inhibition [1]: inactive
inhibition [2]: inactive
inhibition [3]: inactive
inhibition [4]: inactive
Activity [5]: 97%
IC50 [6]: 7 µM
Activity [7]: Active
Activity [8]: 100%
Activity [9]: 24%
Activity [10]: 56%
Activity [11]: 9%
Activity [12]: 0.7%
Activity [13]: 85%
Activity [14]: 95%
Activity [15]: Active
Activity [16]: Active
Activity [17]: inactive
Activity [18]: Active
Activity [19]: inactive
Activity [20]: Active
Activity [21]: inactive
Activity [22]: 100%
Activity [23]: Active
Activity [24]: Active
Activity [25]: Active
Activity [26]: inactive
Activity [27]: inactive
Activity [28]: 77%
Activity [29]: 5%
Activity [30]: 18%
Activity [31]: 17%
Activity [32]: 21%
Activity [33]: 77%
Activity [34]: 2%
Activity [35]: 21%
Activity [36]: 7.4%
Activity [37]: 6%

N#CC(C#N)=Cc1cc(O)c(O)c(O)c1
inhibition [38]: 50%
